Results: ChEMBL document CHEMBL1201862, “PubChem BioAssay data set” (2004)
Active and inactive are the calls of the source.

Experiments:
[1] = target: 26S proteasome non-ATPase regulatory subunit 14 (Homo sapiens, UniProt O00487); test: inhibition of proteasome subunit RPN11 – biochemical, fluorescence polarization, uHTS hits, confirmation (AID 602368); assay type: functional
[2] = target: 72 kDa type IV collagenase (Homo sapiens, UniProt P08253); test: Dose Response validation of uHTS RPN11 inhibitor hits using a MMP-2 Fluorescence assay.; assay type: functional
[3] = target: Prothrombin (Bos taurus, UniProt P00735); test: thrombin protease inhibitors – biochemical, fluorescence polarization, uHTS hits, dose response (AID 602369); assay type: functional
[4] = target: T1, Small ubiquitin-related modifier 1 (Homo sapiens, UniProt P63165); test: SUMO1 protein interaction blockers, potency – biochemical, fluorescence polarization, uHTS hits, dose response (AID 624382); assay type: functional; conditions: read-out: IC50_Mean
[5] = target: T1, Small ubiquitin-related modifier 1; test: SUMO1 protein-protein binding blockers, potency – biochemical, FRET, dose response (AID 624383); assay type: functional; conditions: read-out: IC50_Mean
[6] = target: T2, Carboxy-terminal domain RNA polymerase II polypeptide A small phosphatase 1 (Homo sapiens, UniProt Q9GZU7); test: CTDSP1 inhibitors, concentration-response, biochemical, absorbance readout, ultra-high-throughput screen actives (AID 540297); assay type: functional
T2 sequence (Q9GZU7 whole entry): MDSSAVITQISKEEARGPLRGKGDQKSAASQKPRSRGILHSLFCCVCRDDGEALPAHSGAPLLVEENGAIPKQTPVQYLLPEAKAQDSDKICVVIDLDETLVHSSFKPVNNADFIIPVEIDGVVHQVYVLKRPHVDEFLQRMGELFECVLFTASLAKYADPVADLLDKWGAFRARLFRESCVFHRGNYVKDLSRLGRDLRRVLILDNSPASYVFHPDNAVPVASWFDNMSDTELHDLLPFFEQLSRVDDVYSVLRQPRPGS

[7] = target: Tyrosine-protein phosphatase non-receptor type 11 (Homo sapiens, UniProt Q06124); test: PTPN11 enzyme inhibitors – biochemical, selectivity assay for STEP inhibitor project, dose response (AID 602367); assay type: functional; conditions: read-out: IC50_Mean
[8] = target: Tyrosine-protein phosphatase non-receptor type 5 (Homo sapiens, UniProt P54829); test: PTPN5 enzyme inhibition – biochemical, fluorescence intensity, uHTS hits, confirmation (AID 602372); assay type: functional; conditions: read-out: IC50_Mean
[9] = target: Dual specificity protein phosphatase 3 (Homo sapiens, UniProt P51452); test: VHR phosphatase inhibition, dose response, selectivity assay for STEP inhibitor project, biochemical (AID 602374); assay type: functional; conditions: read-out: IC50_Mean
[10] = target: T3, High affinity choline transporter 1 (Homo sapiens, UniProt Q9GZV3); test: human choline transporter blockers, potency – cell-based, 5-point CRC, membrane potential dye, dose response (AID 504840); assay type: functional
T3 sequence (Q9GZV3 whole entry): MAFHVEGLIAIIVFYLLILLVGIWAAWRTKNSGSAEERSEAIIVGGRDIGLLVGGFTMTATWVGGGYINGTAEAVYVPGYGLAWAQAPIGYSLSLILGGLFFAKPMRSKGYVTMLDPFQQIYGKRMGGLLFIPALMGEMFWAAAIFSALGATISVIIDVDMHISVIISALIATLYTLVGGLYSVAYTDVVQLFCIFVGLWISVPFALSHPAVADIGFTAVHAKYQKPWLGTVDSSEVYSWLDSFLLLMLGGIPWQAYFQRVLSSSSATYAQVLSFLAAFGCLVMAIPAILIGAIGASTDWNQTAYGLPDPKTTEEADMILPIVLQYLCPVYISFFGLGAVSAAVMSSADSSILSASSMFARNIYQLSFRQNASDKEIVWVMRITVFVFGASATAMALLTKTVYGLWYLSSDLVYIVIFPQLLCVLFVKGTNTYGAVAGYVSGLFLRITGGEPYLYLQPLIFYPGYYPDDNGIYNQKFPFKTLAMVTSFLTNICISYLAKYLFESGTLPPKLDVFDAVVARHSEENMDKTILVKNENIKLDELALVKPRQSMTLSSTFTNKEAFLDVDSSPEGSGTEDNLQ

[11] = target: T3, High affinity choline transporter 1; test: human choline transporter blockers, potency – cell-based, 10-point CRC, membrane potential dye, dose response (AID 588401); assay type: functional;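 also: membrane potential dye fluorescence of choline-evoked depolarization via CHT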
[12] = system: CHO-K1; test: (§1) Counterscreen for antagonists of the orexin 1 receptor (OX1R; HCRTR1): Homogeneous time resolved fluorescence (HTRF)-based cell-based dose response assay to identify antagonists of the parental CHO-K1 cell line. [Related pubchem assays (depositor defined):AID434989, AID435008, AID463079, AID485270, AID492963, AID492964, AID492965, AID493232, AID504699, AID504701]; assay type: functional; conditions: Cricetulus griseus
[13] = as §1, with “Fluorescence-based” for “Homogeneous time resolved fluorescence (HTRF)-based”, “cell-based high throughput” for “cell-based”, “CHO” for “CHO-K1”; assay type: functional
[14] = target: T4, Orexin/Hypocretin receptor type 1 (Homo sapiens, UniProt O43613); test: Homogeneous Time Resolved Fluorescence (HTRF)-based cell-based high throughput dose response assay for antagonists of the orexin 1 receptor (OX1R; HCRTR1). [Related pubchem assays (depositor defined):AID434989, AID435008, AID463079, AID485270, AID492963, AID492964, AID492965, AID493232, AID504717, AID504718]; assay type: functional
T4 sequence (O43613 whole entry): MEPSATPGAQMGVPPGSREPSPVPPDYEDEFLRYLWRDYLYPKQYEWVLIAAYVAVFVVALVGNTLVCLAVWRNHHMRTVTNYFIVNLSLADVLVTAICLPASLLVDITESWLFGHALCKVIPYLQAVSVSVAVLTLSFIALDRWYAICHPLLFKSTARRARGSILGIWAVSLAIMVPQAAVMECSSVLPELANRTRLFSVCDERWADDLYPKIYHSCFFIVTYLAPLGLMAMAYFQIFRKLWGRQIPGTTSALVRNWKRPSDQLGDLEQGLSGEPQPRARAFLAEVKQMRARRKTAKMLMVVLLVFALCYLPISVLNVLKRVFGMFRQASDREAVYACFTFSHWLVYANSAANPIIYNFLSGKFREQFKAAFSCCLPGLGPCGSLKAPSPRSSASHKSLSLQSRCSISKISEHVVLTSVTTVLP

[15] = target: T4, Orexin/Hypocretin receptor type 1; test: Fluorescence-based cell-based high throughput dose response assay for antagonists of the orexin 1 receptor (OX1R; HCRTR1). [Related pubchem assays (depositor defined):AID434989, AID435008, AID463079, AID485270, AID492963, AID492964, AID492965, AID493232, AID504717, AID504718]; assay type: functional
[16] = target: T5, Orexin receptor type 2 (Homo sapiens, UniProt O43614); test: Counterscreen assay for antagonists of the orexin 1 receptor (OX1R; HCRTR1): Fluorescence-based cell-based dose response assay for antagonists of the orexin 2 receptor (OX2R; HCRTR2), run by assay provider.; assay type: functional
T5 sequence (O43614 whole entry): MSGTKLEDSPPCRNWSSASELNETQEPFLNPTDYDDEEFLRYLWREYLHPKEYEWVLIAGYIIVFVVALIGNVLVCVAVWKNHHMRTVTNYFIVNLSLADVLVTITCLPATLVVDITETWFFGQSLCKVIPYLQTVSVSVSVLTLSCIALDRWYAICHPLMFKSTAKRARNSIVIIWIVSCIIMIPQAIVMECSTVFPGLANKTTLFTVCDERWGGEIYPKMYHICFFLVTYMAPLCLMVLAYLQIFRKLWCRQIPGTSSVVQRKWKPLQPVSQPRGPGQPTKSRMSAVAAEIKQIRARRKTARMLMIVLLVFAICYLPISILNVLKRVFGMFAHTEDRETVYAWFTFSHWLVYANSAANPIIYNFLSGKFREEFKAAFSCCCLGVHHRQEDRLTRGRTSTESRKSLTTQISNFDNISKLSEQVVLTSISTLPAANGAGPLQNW

[17] = target: T5, Orexin receptor type 2; test: Counterscreen assay for antagonists of the orexin 1 receptor (OX1R; HCRTR1): Homogeneous Time Resolved Fluorescence (HTRF)-based cell-based dose response assay for antagonists of the orexin 2 receptor (OX2R; HCRTR2), run by assay provider.; assay type: functional
[18] = target: Adenosylmethionine-8-amino-7-oxononanoate aminotransferase (Mycobacterium tuberculosis, UniProt P9WQ81); test: Mycobacterium tuberculosis BioA enzyme inhibitor Measured in Biochemical System Using Plate Reader - 2163-02_Inhibitor_Dose_CherryPick_Activity.; assay type: functional, Mycobacterium tuberculosis UT205
[19] = cells; assay type: functional, cell-based
[20] = cells; assay type: functional, cell-based; remark: listed apart in the source
[21] = target: ATP-dependent translocase ABCB1 (Homo sapiens, UniProt P08183); test: inhibition of P-gp mediated JC-1 efflux – Jurkat-DNR cells, flow cytometry, dose response (AID 1689); assay type: functional
[22] = system: Streptococcus sp. 'group A'; test: Streptococcus pyogenes SK(-)GAS viability under kanamycin – luminescence, BacTiterGlo, confirmation, counter-screen for streptokinase expression inhibitor project, dose response (AID 1900); assay type: functional, organism-based
[23] = target: T6, Streptokinase A (Streptococcus pyogenes serotype M1, UniProt P10520); test: viability-normalized secreted streptokinase activity reduction – plasminogen activation absorbance, OD405, dose response (AID 1914); assay type: functional, Streptococcus pyogenes M1 GAS;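 also: secreted streptokinase activity via plasminogen activation per viability signal from cell pellet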
T6 sequence (P10520 whole entry): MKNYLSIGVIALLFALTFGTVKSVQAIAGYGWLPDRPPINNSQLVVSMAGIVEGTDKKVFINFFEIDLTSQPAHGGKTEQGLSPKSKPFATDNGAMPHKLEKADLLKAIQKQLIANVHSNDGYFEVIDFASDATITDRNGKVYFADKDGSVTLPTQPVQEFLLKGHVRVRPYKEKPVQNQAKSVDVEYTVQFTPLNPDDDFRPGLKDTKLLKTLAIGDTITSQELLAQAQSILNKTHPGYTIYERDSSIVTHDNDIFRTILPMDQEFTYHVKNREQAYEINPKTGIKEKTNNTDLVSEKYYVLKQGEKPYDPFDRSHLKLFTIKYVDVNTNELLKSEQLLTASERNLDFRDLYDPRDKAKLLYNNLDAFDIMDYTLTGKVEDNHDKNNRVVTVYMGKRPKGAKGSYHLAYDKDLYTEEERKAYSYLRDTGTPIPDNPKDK

[24] = system: Streptococcus; test: GAS UMAA2166 growth inhibition – luminescence, BacTiterGlo, counter-screen for streptokinase expression inhibitor project, dose response (AID 1915); assay type: functional, organism-based;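 also: potency for reduction of bacterial viability or growth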
[25] = target: DNA (cytosine-5)-methyltransferase 1 (Homo sapiens, UniProt P26358); test: inhibition of DNA methylation by DNMT1 – biochemical, fluorescent molecular beacon, confirmation (AID 602386); assay type: functional
[26] = cells
[27] = target: Protein disulfide-isomerase (Homo sapiens, UniProt P07237); test: inhibition of PDI-driven insulin aggregation – biochemical, turbidity, absorbance, cherry-picked samples, dose response (AID 602350); assay type: functional
[28] = target: T7, Mitochondrial peptide methionine sulfoxide reductase (Bos taurus, UniProt P54149); assay type: functional;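 also: absorbance read-out, biochemical high-throughput dose-response screen for MsrA inhibitors, confirmatory; recombinant bovine MsrA coupled to E. coli TrxB with NADPH and selenocystamine; potency is for inhibitors of MsrA activity on DMSO substrate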
T7 sequence (P54149 whole entry): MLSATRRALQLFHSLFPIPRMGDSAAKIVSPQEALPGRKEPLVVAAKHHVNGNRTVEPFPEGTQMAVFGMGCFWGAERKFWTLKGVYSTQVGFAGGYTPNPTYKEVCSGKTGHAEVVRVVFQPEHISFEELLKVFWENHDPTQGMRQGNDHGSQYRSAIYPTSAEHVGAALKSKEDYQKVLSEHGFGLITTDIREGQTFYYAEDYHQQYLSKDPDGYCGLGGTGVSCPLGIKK

26S proteasome non-ATPase regulatory subunit 14, sequence (O00487 whole entry): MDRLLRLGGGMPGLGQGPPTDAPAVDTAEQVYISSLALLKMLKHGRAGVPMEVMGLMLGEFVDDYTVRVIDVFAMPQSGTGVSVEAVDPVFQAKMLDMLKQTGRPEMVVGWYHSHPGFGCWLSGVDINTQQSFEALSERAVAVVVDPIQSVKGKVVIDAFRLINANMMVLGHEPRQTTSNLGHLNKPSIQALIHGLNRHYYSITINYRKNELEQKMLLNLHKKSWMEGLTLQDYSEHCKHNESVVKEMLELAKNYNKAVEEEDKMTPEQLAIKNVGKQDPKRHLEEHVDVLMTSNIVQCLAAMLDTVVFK
72 kDa type IV collagenase, sequence (P08253 whole entry): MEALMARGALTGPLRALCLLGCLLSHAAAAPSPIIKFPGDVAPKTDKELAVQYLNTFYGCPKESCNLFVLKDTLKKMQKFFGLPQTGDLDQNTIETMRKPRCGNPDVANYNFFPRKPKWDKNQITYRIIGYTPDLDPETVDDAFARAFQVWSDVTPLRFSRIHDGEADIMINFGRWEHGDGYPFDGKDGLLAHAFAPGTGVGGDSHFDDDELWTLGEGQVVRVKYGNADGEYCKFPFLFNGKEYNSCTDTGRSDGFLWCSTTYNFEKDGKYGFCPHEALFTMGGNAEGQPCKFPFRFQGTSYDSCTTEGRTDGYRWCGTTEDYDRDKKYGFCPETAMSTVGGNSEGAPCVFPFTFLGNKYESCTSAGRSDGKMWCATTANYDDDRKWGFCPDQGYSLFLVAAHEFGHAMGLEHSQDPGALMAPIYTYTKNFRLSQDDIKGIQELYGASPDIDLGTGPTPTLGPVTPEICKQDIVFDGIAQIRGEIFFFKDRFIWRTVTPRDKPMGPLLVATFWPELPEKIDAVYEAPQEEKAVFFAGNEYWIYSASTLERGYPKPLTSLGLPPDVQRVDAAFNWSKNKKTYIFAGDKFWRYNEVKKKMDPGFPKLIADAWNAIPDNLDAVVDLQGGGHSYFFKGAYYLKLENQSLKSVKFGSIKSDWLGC
T1 sequence (P63165 whole entry): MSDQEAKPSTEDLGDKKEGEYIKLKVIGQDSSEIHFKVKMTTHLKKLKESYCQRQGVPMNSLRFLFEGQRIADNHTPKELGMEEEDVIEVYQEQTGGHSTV
Protein disulfide-isomerase, sequence (P07237 whole entry): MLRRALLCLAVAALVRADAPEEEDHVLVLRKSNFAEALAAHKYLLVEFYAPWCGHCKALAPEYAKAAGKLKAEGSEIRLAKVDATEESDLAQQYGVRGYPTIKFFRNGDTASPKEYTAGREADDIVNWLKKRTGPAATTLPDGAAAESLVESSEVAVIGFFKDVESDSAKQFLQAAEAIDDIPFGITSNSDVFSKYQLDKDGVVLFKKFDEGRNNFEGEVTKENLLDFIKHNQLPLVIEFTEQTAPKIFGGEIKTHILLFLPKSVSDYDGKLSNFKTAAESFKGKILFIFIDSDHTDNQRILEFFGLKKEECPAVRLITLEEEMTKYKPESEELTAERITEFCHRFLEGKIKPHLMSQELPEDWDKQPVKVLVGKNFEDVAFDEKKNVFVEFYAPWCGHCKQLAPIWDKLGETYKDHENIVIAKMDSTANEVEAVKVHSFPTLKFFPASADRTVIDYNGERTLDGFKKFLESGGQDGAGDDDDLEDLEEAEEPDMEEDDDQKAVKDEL
Tyrosine-protein phosphatase non-receptor type 11, sequence (Q06124 whole entry): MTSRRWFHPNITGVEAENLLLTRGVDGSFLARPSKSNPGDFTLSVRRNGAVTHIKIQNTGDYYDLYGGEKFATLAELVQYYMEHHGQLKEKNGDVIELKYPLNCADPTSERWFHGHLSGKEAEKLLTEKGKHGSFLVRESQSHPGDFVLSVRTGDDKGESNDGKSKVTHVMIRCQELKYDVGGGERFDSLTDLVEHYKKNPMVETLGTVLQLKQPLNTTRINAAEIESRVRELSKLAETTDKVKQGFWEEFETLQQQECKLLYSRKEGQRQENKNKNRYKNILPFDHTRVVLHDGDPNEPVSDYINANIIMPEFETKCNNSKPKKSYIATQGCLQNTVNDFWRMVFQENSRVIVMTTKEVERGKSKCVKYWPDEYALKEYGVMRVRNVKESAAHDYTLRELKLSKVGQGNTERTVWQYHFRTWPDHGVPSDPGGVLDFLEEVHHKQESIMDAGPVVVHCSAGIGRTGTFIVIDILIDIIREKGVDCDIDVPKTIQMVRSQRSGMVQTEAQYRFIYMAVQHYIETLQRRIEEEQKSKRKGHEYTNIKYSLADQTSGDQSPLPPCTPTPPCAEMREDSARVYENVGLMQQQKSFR
ATP-dependent translocase ABCB1, sequence (P08183 whole entry): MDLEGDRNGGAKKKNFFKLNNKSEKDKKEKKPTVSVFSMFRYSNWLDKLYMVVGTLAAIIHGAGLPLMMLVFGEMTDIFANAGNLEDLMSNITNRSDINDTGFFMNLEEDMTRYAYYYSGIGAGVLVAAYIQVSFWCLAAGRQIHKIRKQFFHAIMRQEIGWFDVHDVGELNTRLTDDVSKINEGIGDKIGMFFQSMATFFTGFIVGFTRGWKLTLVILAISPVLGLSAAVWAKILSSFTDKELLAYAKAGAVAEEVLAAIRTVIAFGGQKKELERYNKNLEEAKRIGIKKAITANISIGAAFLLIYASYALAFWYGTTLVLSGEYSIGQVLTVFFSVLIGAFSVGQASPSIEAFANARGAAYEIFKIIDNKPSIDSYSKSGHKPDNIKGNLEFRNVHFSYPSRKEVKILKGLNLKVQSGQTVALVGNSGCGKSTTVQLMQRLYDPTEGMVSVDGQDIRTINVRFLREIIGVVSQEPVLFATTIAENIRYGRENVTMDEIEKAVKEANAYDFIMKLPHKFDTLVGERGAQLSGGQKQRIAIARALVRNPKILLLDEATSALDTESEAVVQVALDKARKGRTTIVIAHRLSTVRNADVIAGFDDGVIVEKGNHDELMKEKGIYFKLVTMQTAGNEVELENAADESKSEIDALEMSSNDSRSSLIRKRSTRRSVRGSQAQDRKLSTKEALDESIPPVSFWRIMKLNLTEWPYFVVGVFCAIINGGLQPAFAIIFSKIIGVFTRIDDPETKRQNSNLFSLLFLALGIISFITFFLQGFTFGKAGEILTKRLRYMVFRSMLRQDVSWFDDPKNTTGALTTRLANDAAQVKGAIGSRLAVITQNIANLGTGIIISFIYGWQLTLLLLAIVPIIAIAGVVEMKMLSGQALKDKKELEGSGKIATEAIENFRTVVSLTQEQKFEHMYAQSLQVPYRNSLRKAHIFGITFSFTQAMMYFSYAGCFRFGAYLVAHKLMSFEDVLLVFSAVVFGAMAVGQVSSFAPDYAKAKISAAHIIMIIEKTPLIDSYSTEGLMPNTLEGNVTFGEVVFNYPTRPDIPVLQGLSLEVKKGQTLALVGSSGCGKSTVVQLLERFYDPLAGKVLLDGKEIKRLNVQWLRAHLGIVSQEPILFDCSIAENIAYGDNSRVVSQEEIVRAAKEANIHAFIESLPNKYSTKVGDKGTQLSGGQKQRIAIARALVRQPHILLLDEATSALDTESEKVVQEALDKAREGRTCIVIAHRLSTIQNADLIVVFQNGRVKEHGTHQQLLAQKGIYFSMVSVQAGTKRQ
Tyrosine-protein phosphatase non-receptor type 5, sequence (P54829 whole entry): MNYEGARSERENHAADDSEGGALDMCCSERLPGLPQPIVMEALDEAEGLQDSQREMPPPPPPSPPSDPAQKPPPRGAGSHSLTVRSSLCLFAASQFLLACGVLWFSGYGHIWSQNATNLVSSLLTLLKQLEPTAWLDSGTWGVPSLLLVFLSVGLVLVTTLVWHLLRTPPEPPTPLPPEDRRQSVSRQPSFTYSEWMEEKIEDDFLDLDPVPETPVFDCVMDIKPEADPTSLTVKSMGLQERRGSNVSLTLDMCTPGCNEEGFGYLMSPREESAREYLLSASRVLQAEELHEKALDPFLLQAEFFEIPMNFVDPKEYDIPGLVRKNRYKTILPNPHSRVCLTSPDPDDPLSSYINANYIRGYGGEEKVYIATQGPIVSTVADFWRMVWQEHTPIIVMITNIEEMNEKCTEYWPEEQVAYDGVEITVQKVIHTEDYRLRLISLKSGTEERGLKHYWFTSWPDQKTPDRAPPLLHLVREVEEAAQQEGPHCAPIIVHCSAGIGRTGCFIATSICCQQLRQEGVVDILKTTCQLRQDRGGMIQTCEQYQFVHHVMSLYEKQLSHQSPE
Dual specificity protein phosphatase 3, sequence (P51452 whole entry): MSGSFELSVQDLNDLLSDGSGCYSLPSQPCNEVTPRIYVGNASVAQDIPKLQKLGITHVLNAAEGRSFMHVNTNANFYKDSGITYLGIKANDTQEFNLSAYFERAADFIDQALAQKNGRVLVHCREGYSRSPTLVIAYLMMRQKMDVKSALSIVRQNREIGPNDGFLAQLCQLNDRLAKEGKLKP
Adenosylmethionine-8-amino-7-oxononanoate aminotransferase, sequence (P9WQ81 whole entry): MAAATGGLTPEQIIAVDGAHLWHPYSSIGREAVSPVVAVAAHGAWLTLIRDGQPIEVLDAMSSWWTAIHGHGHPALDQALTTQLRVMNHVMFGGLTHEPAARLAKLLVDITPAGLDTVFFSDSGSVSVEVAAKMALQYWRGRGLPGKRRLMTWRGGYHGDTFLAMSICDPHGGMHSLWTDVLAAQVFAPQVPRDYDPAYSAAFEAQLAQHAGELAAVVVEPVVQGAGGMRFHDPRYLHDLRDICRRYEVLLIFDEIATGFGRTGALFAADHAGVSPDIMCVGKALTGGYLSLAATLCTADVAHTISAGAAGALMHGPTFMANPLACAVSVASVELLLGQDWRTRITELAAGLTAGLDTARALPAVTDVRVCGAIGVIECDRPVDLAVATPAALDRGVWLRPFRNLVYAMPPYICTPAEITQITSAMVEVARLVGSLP

With `O=c1cc(-c2ccc(O)cc2)oc2c1ccc1ccccc12` the IC50 [1] was 47.7 µM (active), the IC50 [2] was > 100 µM (inactive) and the IC50 [3] was 62.2 µM (active). For the same compound, the IC50 [4] was > 66.6 µM (inactive) and the IC50 [5] was 7.87 µM (active).
For `CCCCCn1c(N)c(-c2nc3ccccc3o2)c2c([N+](=O)[O-])nn(C)c(=O)c21`, the IC50 [6] was 3.06 µM (active), the IC50 [7] was 0.738 µM (active) and the IC50 [8] was > 80 µM (inactive). For the same compound, the IC50 [9] was 0.343 µM (active).
In the case of `Fc1ccccc1N=C(S)NNc1ncc(C(F)(F)F)cc1Cl`, the IC50 [10] is reported as 10 µM (active) and the IC50 [11] is reported as 3.55 µM (active).
For `CCc1c(C)nc(N)nc1N1N=C1SCCOc1ccccc1`, the IC50 [10] was 9.19 µM (active) and the IC50 [11] was 4.47 µM (active).
With `COc1cc(CN2CC(=O)N(c3ccccc3Cl)C2=S)cc(OC)c1OC` the IC50 [12] was > 66.2 µM (inactive), the IC50 [13] was 21.4 µM (inactive) and the IC50 [14] was 1.01 µM (active). The IC50 [15] was 6.26 µM (active), the IC50 [16] was > 88.8 µM (inactive) and the IC50 [17] was > 50 µM (inactive).
For `CC(=O)Nc1ccc2[nH]c(-c3cccnc3)nc2c1`, the AC50 [18] was 4.1 µM (active).
With `Cc1ccc(-c2csc3nnc(SCC(=O)Nc4nsc(-c5ccccc5)n4)n23)cc1` the IC50 [12] was > 66.2 µM (inactive), the IC50 [13] was > 49.7 µM (inactive) and the IC50 [14] was 2.53 µM (active). For the same compound, the IC50 [15] was 5.64 µM (active), the IC50 [16] was > 88.8 µM (inactive) and the IC50 [17] was 0.177 µM (active).
For `COc1ccc(/C=N/NC(=O)c2cccnc2)cc1CN1CCN(c2ccc(F)cc2)CC1`, the EC50 [19] was > 350 µM (not active), the EC50 [20] was > 350 µM (not active) and the EC50 [21] was 1.01 µM (active).
In the case of `CCOC(=O)C1=C(C)N=c2s/c(=C/c3ccc(OCC(=O)O)c(OC)c3)c(=O)n2C1c1ccc(Cl)cc1` (centres undefined), the EC50 [22] is reported as 9.79 µM (active), the EC50 [23] is reported as > 150 µM (not active) and the EC50 [24] is reported as 13.2 µM (active). The IC50 [25] was 10.2 µM (active), the IC50 [1] was 11.7 µM (active) and the IC50 [2] was > 100 µM (inactive). For the same compound, the IC50 [3] was 25.1 µM (active) and the IC50 [26] was 45.5 µM (active).
With `COc1ccccc1N1CCN(C(=O)C(=O)N/N=C/c2cccc(O)c2)CC1` the AC50 [27] was 19.5 µM (active).
With `O=C(O)COc1ccc(/C=N/NC(=O)/C(=C/C=C/c2ccccc2)NC(=O)c2ccccc2)cc1` the IC50 [28] was 103 µM (inactive).
